Measurements: patent US9040715B2 (priority 2008, dated 2015)
Where two headings read alike, the source gives them in different places.

How the values were obtained:
Assay type in all cases: cell-based
APC103 cells = assay: Cytotoxicity by neutral red dye uptake after 3 days of treatment
Protocol: (§1) The antiviral activity of Compounds I-8 and I-9 was assessed in a 3-day assay using the stably-expressing HCV replicon cell lines, AVA5 (sub-genomic CONI, genotype 1b) and APC103 (genomic H77, genotype la) maintained as sub -confluent cultures on 96-well plates. Antiviral activity was determined by blot hybridization analysis of intracellular HCV RNA (normalized to the level of cellular B-actin RNA in each culture sample). A 3-fold suppression of HCV RNA and less than 2-fold suppression of cellular B-actin RNA was used as the cutoff. Cytotoxicity was assessed by neutral red dye uptake after 3 days of treatment. Dose response inhibition of HCV was also determined (FIG. 6). The nucleoside analogue 2′C-methyl cytidine (2′CmeC) was used as an assay activity control. EC50, EC90 and CC50 values (+/− standard deviations [S.D.]) were calculated by linear regression analysis. EC50 and EC90 are drug concentrations at which a 2-fold, or a 10-fold depression of intracellular HBV DNA or HCV RNA (relative to the average levels in untreated cultures), respectively, was observed. CC50 is the drug concentration at which a 2-fold lower level of neutral red dye uptake (relative to the average levels in untreated cultures) was observed.

AVA5 cells = assay: as above
Protocol: as §1

[1] = tested on: HCV replicon cell line APC103 (genomic H77, genotype la); assay: Anti-HCV activity, 3-day HCV replicon assay, blot hybridization of intracellular HCV RNA; conditions: for EC50: read-out: EC50 (μM ± SD); for EC90: 10-fold depression of intracellular HCV RNA
Protocol: as §1

[2] = tested on: HCV replicon cell line AVA5 (sub-genomic CONI, genotype 1b); assay: as above; conditions: for EC50: 2-fold depression of intracellular HCV RNA
Protocol: as §1

[3] = Cytotoxicity by neutral red dye uptake after 3 days of treatment; conditions: human
Protocol: as §1

HCV replication = assay: Effect of combination treatments on HCV replication (CalcuSyn analysis); design: key to Type of Interaction: S, synergistic; conditions: for EC50 / EC90: Hepatitis C virus; for EC50: read-out: Compound I-9 EC50; for EC90: read-out: Compound I-9 EC90
Excerpt: Compound I-9 was utilized in combination treatments with interferon (with and without RBV), and several representative STAT—C agents including 2′CmeC (nucleoside analogue), HCV-796 (non-nucleoside polymerase inhibitor), and VX-950 (protease inhibitor) (Table 13). For these studies, the compounds were mixed at equipotent (not necessarily equimolar) concentrations based on the monotherapy EC90 values. For example, 2′CmeC and Compound I-9 were mixed at equal molar concentrations, while 10-fold more Compound I-9 was used relative to VX-950 in that combination. The mixtures were then serially diluted for dose response analysis keeping the molar ratios constant. Corresponding monotherapies were also included. # Ribavirin (RBV) was held at a constant concentration of 30 uM for all serial dilutions of this combination. The overall type of interaction as determined by analysis with CalcuSyn (Biosoft, Inc.; Cambridge, UK) for each combination is indicated next to the corresponding EC50 and EC90 values in Table 13.
Analysis of combination therapies was performed using Calcusyn™ software (Biosoft, Inc.; Cambridge, UK). Two types of evaluations were performed (see FIG. 7). The top panels of FIG. 5 present CI-Fa (Combination Index—Fraction (of virus) affected) plots). For these plots, a combination index [CI] greater than 1.0 indicates antagonism and a CI less than 1.0 indicates synergism. Evaluations of synergy, additivity (summation), or antagonism at different levels of virus inhibition (e.g. […] (Fa=0.5) to 99% (Fa=0.99)) were performed and are provided by the plotted lines and points. Dotted lines denoting 1.96 standard deviations for significance evaluations can be added but are not included in this example for clarity of presentation. The bottom panels present conservative isobolograms. […] Three lines radiating out from the axes denote the expected (e.g., additive) EDC50, EDC75, and EDC90 values for drug combinations as calculated from the monotherapies. ED50, ED75, and ED90 values for the combinations that plot to the left (e.g., less than) of the corresponding lines indicate synergy, and values plotting to the right (e.g., greater than) of the corresponding lines indicate antagonism.

[4] = Hepatitis C virus, Ava5, read-out: EC90 (μM ± SD)
[5] = combination with 2′CmeC, molar ratio 1:1
[6] = combination with HCV-796, molar ratio 1:100
[7] = combination with IFN + 30 μM RBV (RBV held constant), molar ratio 1:1
[8] = combination with IFN, molar ratio 1:1
[9] = combination with VX-950, molar ratio 1:10

C[C@@]1(O)[C@H](O)[C@@H](CO)O[C@H]1n1ccc(N)nc1=O [2′CmeC, 2′C-methyl cytidine, reference compound]
CC50 (APC103 cells): > 300 µM | CC50 (AVA5 cells): > 300 µM | SI (CC50/EC50) ([1]; APC103): >136 | EC50 ([1]; APC103, 2-fold depression of intracellular HCV RNA): 5.8 ± 0.4 µM | EC90 ([1]; APC103): 6.4 ± 0.6 µM | SI (CC50/EC50) ([2]; AVA5): >150 | EC50 ([2]; AVA5): 2 ± 0.1 µM | EC90 ([2]; AVA5, 10-fold depression of intracellular HCV RNA, read-out: EC90 (μM ± SD)): 2.2 ± 0.2 µM

CC(C(=O)Nc1cccc(Oc2ccccc2)c1)n1sc2ccccc2c1=O (stereo not drawn) [Compound I-9]
CC50 at 3 days ([3]; APC103): > 100 µM | CC50 at 3 days ([3]; AVA5): > 100 µM | SI (CC50/EC50) ([1]; APC103): >35 | EC50 ([1]; Hepatitis C virus): 8.5 ± 0.6 µM | EC90 ([1]; Hepatitis C virus, APC103): 9 ± 1 µM | SI (CC50/EC50) ([2]; AVA5): >42 | EC90 [2, 4]: 2.8 ± 0.3 µM | EC50 ([2]; Hepatitis C virus, AVA5): 2.4 ± 0.2 µM | EC50 (HCV replication; None (monotherapy)): 2600 ± 200 nM | EC90 (HCV replication; None (monotherapy)): 9100 ± 500 nM | EC50 (HCV replication; [5]): 700 ± 100 nM | EC90 (HCV replication; [5]): 1800 ± 200 nM | EC50 (HCV replication; [6]): 100 ± 10 nM | EC90 (HCV replication; [6]): 400 ± 30 nM | EC50 (HCV replication; [7]): 200 ± 30 nM | EC90 (HCV replication; [7]): 700 ± 100 nM | EC50 (HCV replication; [8]): 300 ± 30 nM | EC90 (HCV replication; [8]): 1000 ± 100 nM | EC50 (HCV replication; [9]): 300 ± 20 nM | EC90 (HCV replication; [9]): 700 ± 100 nM | Type of Interaction (HCV replication; [5]): S | Type of Interaction (HCV replication; [6]): S | Type of Interaction (HCV replication; [7]): S | Type of Interaction (HCV replication; [8]): S | Type of Interaction (HCV replication; [9]): S | Interaction in combination treatments (HCV replication; with interferon, ribavirin, and the STAT-C agents): interacted favorably

O=C(Cn1sc2ccccc2c1=O)Nc1cccc(Oc2ccccc2)c1 [Compound I-8]
CC50 at 3 days ([3]; APC103): > 100 µM | CC50 at 3 days ([3]; AVA5): > 100 µM | SI (CC50/EC50) ([1]; APC103): >18 | EC50 ([1]; Hepatitis C virus): 19 ± 2.3 µM | EC90 ([1]; Hepatitis C virus, APC103): 23 ± 1.8 µM | SI (CC50/EC50) ([2]; AVA5): >17 | EC90 [2, 4]: 5.6 ± 0.7 µM | EC50 ([2]; Hepatitis C virus, AVA5): 5.8 ± 3.7 µM
